Each compound was assayed against Prothrombin (Homo sapiens, UniProt P00734) (assay: Compound was evaluated for the inhibitory activity against thrombin.).

Point of comparison: `CC1(C)[C@@H]2C[C@H]3OB([C@H](CCCCN)NC(=O)[C@@H]4CCCN4C(=O)[C@@H]4CNC[C@H]4c4cccc(C(F)(F)F)c4)O[C@@]3(C)[C@H]1C2`, Ki 0.5 nM. Against it:
- NCCCC[C@H](NC(=O)[C@@H]1CCCN1C(=O)CCc1ccccc1)B(O)O — 1.6-fold higher, 0.8 nM
- CC(C)(C)OC(=O)N1C[C@@H](C(=O)N2CCC[C@H]2C(=O)N[C@@H](CCCCN)B2O[C@@H]3C[C@@H]4C[C@@H](C4(C)C)[C@]3(C)O2)[C@H](c2cccc(C(F)(F)F)c2)C1 — 1.6-fold lower, 0.32 nM
- NCCCC[C@H](NC(=O)[C@@H]1CCCN1C(=O)CCc1cccc(C(F)(F)F)c1)B(O)O — 1.6-fold higher, 0.78 nM
- NCCC[C@H](NC(=O)[C@@H]1CCCN1C(=O)[C@@H]1CCCC[C@H]1c1ccccc1)B(O)O — within 1.5-fold, 0.46 nM
- CC(C)(C)OC(=O)N1C[C@H](C(=O)N2CCC[C@H]2C(=O)N[C@@H](CCCCN)B2O[C@@H]3C[C@@H]4C[C@@H](C4(C)C)[C@]3(C)O2)[C@@H](c2cccc(C(F)(F)F)c2)C1 — 6.2-fold higher, 3.1 nM
- CC1(C)[C@@H]2C[C@H]3OB([C@H](CCCCN)NC(=O)[C@@H]4CCCN4C(=O)[C@H]4CNC[C@@H]4c4cccc(C(F)(F)F)c4)O[C@@]3(C)[C@H]1C2 — 11-fold higher, 5.6 nM
- CC12OB(C(CCCCN)NC(=O)[C@@H]3CCCN3C(=O)[C@H]3CCCC[C@@H]3c3ccccc3)OC1C[C@@H]1C[C@H]2C1(C)C (stereo partly drawn) — 60-fold higher, 30 nM

Source: ChEMBL document CHEMBL1129708, “Design and synthesis of ring-constrained boropeptide thrombin inhibitors” (Bioorg Med Chem Lett, 1996)
